Series [1] can be described thus: Cytotoxicity against human SW620 cells assessed as cell survival rate at 64 microg/ml incubated for 48 hrs by CCK8 assay relative to control. It is filed as toxicity, cell-based, SW-620. The conditions noted are these: at 64 µg/mL, read-out: Activity. (Formazan colour is commonly taken as a measure of viable cells.)
The nature of series [2]: Cytotoxicity against rat HBZY-1 cells assessed as cell survival rate at 64 microg/ml incubated for 48 hrs by CCK8 assay relative to control. It is filed as toxicity, cell-based. The conditions noted are these: at 64 µg/mL, read-out: Activity.
Series [3] can be described thus: Hemolytic activity in defibrinated sheep RBC incubated for 1 hrs. It is filed as toxicity, cell-based, Ovis aries, Erythrocyte. The note with it: defibrinated sheep red blood cells.
In series [4] the test system is Stenotrophomonas maltophilia. The experiment in a line: Antimicrobial activity against Stenotrophomonas maltophilia ATCC 17808 assessed as inhibition of bacterial growth incubated for 16 to 18 hrs by CLSI protocol based Muller Hinton broth assay. The note with it: time 16-18 hrs. It counts as functional.
Series [5] relates to Staphylococcus aureus. The series is described as follows: Antimicrobial activity against Staphylococcus aureus ATCC 29213 assessed as inhibition of bacterial growth incubated for 16 to 18 hrs by CLSI protocol based Muller Hinton broth assay. The conditions noted are these: time 16-18 hrs. It counts as functional.
The test system of series [6] is Escherichia coli. The series is described as follows: Antimicrobial activity against Escherichia coli ATCC 25922 assessed as inhibition of bacterial growth incubated for 16 to 18 hrs by CLSI protocol based Muller Hinton broth assay. The conditions noted are these: time 16-18 hrs. It counts as functional.
Series [7] has as its system Enterococcus faecalis. The series is described as follows: Antimicrobial activity against Enterococcus faecalis ATCC 29212 assessed as inhibition of bacterial growth incubated for 16 to 18 hrs by CLSI protocol based Muller Hinton broth assay. It counts as functional. The conditions noted are these: time 16-18 hrs.
The subject of series [8] is Cell membrane. The experiment in a line: Induction of Cytoplasmic membrane depolarization in Staphylococcus aureus at 16 microg/ml incubated for 15 mins by DiSC3(5) dye based fluorescence microplate reader. It is filed as cell membranes. The conditions noted are these: dose 16.0 µg/ml.

The values that follow come from ChEMBL document CHEMBL5543099 (Eur J Med Chem, 2024).

In brackets after ≈: the same amount, converted by molar mass. Activity calls are given as the source filed them. Where only a bound is given, the exact number is not on record here.

As for `C=C[C@]1(C)C[C@@H](OC(=O)CS[C@@H]2C[C@H]3CC[C@@H](C2)N3C)[C@]2(C)[C@H](C)CC[C@]3(CCC(=O)[C@H]32)[C@@H](C)[C@@H]1O` [RETAPAMULIN], the viability at 48 h, 64 microg/ml in series [1] worked out at 4.7%; in series [2], 1.7%.
`CCCCCCCCNC(=O)C[n+]1cccc(C(=O)N2CCN(c3cc4c(cc3F)c(=O)c(C(=O)O)cn4C3CC3)CC2)c1.[Br-]`: the HC50 – broadly, the concentration that lyses half of the red blood cells – at 1 h in series [3] is more than 1280 µg/mL. Further, the minimum inhibitory concentration (MIC) – broadly, the smallest concentration in the dilution series that meets the test's criterion for growth inhibition – came out at 16 µg/mL in series [4], 8 µg/mL in series [5], 8 µg/mL in series [6] and 8 µg/mL in series [7].
Take `CCCCCCNC(=O)C[n+]1cccc(C(=O)N2CCN(c3cc4c(cc3F)c(=O)c(C(=O)O)cn4C3CC3)CC2)c1.[Br-]`: the concentration for 50% haemolysis (HC50) at 1 h in series [3] is more than 1280 µg/mL. Besides, the MIC in series [4] turned out to be 64 µg/mL; in series [5] it was 16 µg/mL; in series [6], 16 µg/mL; in series [7], 32 µg/mL.
`CCCCNC(=O)C[n+]1cccc(C(=O)N2CCN(c3cc4c(cc3F)c(=O)c(C(=O)O)cn4C3CC3)CC2)c1.[Br-]` had an HC50 at 1 h in series [3] of more than 1280 µg/mL. Moreover, the MIC in series [4] is more than 64 µg/mL; in series [5] it was 64 µg/mL; in series [6], 32 µg/mL; in series [7] it was more than 64 µg/mL.
In series [3], `CCCCCNC(=O)C[n+]1ccc(C(=O)N2CCN(c3cc4c(cc3F)c(=O)c(C(=O)O)cn4C3CC3)CC2)cc1.[Br-]` registered an HC50 at 1 h of more than 1280 µg/mL. Besides, the MIC was found to be 64 µg/mL in series [4], 16 µg/mL in series [5], 16 µg/mL in series [6] and 8 µg/mL in series [7].
For the compound `C[C@@H](O)[C@H]1C(=O)N2C(C(=O)O)=C(S[C@@H]3CN[C@H](C(=O)N(C)C)C3)[C@H](C)[C@H]12` [MEROPENEM], the MIC in series [4] was found to be 0.06 µg/mL (≈ 0.156 µM); in series [6] it was 0.03 µg/mL (≈ 0.0782 µM).
`O=C(O)c1cn(C2CC2)c2cc(N3CCN(C(=O)c4cc[n+](Cc5ccc(F)cc5)cc4)CC3)c(F)cc2c1=O.[Br-]` displayed an HC50 at 1 h in series [3] of more than 1280 µg/mL. The MIC was found to be 4 µg/mL in series [4], 16 µg/mL in series [5], 4 µg/mL in series [6] and 8 µg/mL in series [7].
For the compound GENTAMICIN, the outcome in series [8] was inactive.
Compound `O=C(O)c1cn(C2CC2)c2cc(N3CCN(C(=O)c4cc[n+](Cc5ccccc5)cc4)CC3)c(F)cc2c1=O.[Br-]` yielded an HC50 at 1 h in series [3] of more than 1280 µg/mL. The MIC in series [4] was 4 µg/mL; in series [5] it was 16 µg/mL; in series [6], 8 µg/mL; in series [7], 8 µg/mL.
Turning to `CCCCCCNC(=O)C[n+]1ccc(C(=O)N2CCN(c3cc4c(cc3F)c(=O)c(C(=O)O)cn4C3CC3)CC2)cc1.[Br-]`, the HC50 at 1 h in series [3] is more than 1280 µg/mL. The MIC in series [4] was 16 µg/mL; in series [5], 8 µg/mL; in series [6] it was 8 µg/mL; in series [7], 8 µg/mL.
On to `O=C(O)c1cn(C2CC2)c2cc(N3CCN(C(=O)c4cc[n+](Cc5ccc(C(F)(F)F)cc5)cc4)CC3)c(F)cc2c1=O.[Br-]`, for which, in series [3], the 50% haemolytic concentration (HC50) at 1 h was more than 1280 µg/mL. Besides, the MIC in series [4] was 4 µg/mL; in series [5], 16 µg/mL; in series [6] it was 4 µg/mL; in series [7], 8 µg/mL.
`O=C(O)c1cn(C2CC2)c2cc(N3CCN(C(=O)C[n+]4ccc(-c5ccccc5)cc4)CC3)c(F)cc2c1=O.[Br-]` registered an HC50 at 1 h in series [3] of more than 1280 µg/mL. Further, the MIC in series [4] stood at 16 µg/mL; in series [5], 16 µg/mL; in series [6] it was 16 µg/mL; in series [7], 8 µg/mL.
`CC(C)(C)c1ccc(C[n+]2ccc(C(=O)N3CCN(c4cc5c(cc4F)c(=O)c(C(=O)O)cn5C4CC4)CC3)cc2)cc1.[Br-]` returned an HC50 at 1 h in series [3] of more than 1280 µg/mL. The MIC in series [4] was 4 µg/mL; in series [5] it was 8 µg/mL; in series [6], 4 µg/mL; in series [7], 4 µg/mL.
As to `CCCCCNC(=O)C[n+]1cccc(C(=O)N2CCN(c3cc4c(cc3F)c(=O)c(C(=O)O)cn4C3CC3)CC2)c1.[Br-]`, in series [3], the HC50 at 1 h is more than 1280 µg/mL. The MIC in series [4] is more than 64 µg/mL; in series [5] it was 32 µg/mL; in series [6], 32 µg/mL; in series [7], 64 µg/mL.
In series [3], `CCCNC(=O)C[n+]1cccc(C(=O)N2CCN(c3cc4c(cc3F)c(=O)c(C(=O)O)cn4C3CC3)CC2)c1.[Br-]` registered an HC50 at 1 h of more than 1280 µg/mL. Moreover, the MIC in series [4] is more than 64 µg/mL; in series [5], 64 µg/mL; in series [6], 16 µg/mL; in series [7], 64 µg/mL.
Consider `C=C[C@]1(C)C[C@@H](OC(=O)CSCCN(CC)CC)[C@]2(C)[C@H](C)CC[C@]3(CCC(=O)[C@H]32)[C@@H](C)[C@@H]1O` [TIAMULIN], for which the viability at 48 h, 64 microg/ml in series [1] came to 32.9%; in series [2] it was 85.9%.
`CCCCCCCNC(=O)C[n+]1cccc(C(=O)N2CCN(c3cc4c(cc3F)c(=O)c(C(=O)O)cn4C3CC3)CC2)c1.[Br-]` yielded an HC50 at 1 h in series [3] of more than 1280 µg/mL. Also, the MIC is 64 µg/mL in series [4], 8 µg/mL in series [5], 8 µg/mL in series [6] and 8 µg/mL in series [7].
`O=C(O)c1cn(C2CC2)c2cc(N3CCN(C(=O)c4cc[n+](Cc5ccc(Cl)cc5)cc4)CC3)c(F)cc2c1=O.[Br-]` gave an HC50 at 1 h in series [3] of more than 1280 µg/mL. Further, the MIC is 8 µg/mL in series [4], 16 µg/mL in series [5], 8 µg/mL in series [6] and 8 µg/mL in series [7].
For `CCCCCCCCCNC(=O)C[n+]1cccc(C(=O)N2CCN(c3cc4c(cc3F)c(=O)c(C(=O)O)cn4C3CC3)CC2)c1.[Br-]`, the HC50 at 1 h in series [3] was more than 1280 µg/mL. Also, the MIC in series [4] is 32 µg/mL; in series [5], 8 µg/mL; in series [6], 8 µg/mL; in series [7], 8 µg/mL.
`CCCCCCCCCNC(=O)C[n+]1ccc(C(=O)N2CCN(c3cc4c(cc3F)c(=O)c(C(=O)O)cn4C3CC3)CC2)cc1.[Br-]`: the HC50 at 1 h in series [3] is more than 1280 µg/mL. In addition, the MIC in series [4] is 16 µg/mL; in series [5] it was 4 µg/mL; in series [6], 4 µg/mL; in series [7], 2 µg/mL.
On to `CCCCCCCNC(=O)C[n+]1ccc(C(=O)N2CCN(c3cc4c(cc3F)c(=O)c(C(=O)O)cn4C3CC3)CC2)cc1.[Br-]`, for which the 50% haemolytic concentration (HC50) at 1 h in series [3] is more than 1280 µg/mL. Moreover, the MIC turned out to be 32 µg/mL in series [4], 4 µg/mL in series [5], 4 µg/mL in series [6] and 2 µg/mL in series [7].
As to `CCCCNC(=O)C[n+]1ccc(C(=O)N2CCN(c3cc4c(cc3F)c(=O)c(C(=O)O)cn4C3CC3)CC2)cc1.[Br-]`, the concentration for 50% haemolysis (HC50) at 1 h in series [3] is more than 1280 µg/mL. In addition, the MIC in series [4] turned out to be 64 µg/mL; in series [5], 16 µg/mL; in series [6], 16 µg/mL; in series [7] it was 16 µg/mL.
For the compound `O=C(O)c1cn(C2CC2)c2cc(N3CCN(C(=O)c4cc[n+](Cc5ccc(-c6ccccc6)cc5)cc4)CC3)c(F)cc2c1=O.[Br-]`, the HC50 at 1 h in series [3] is more than 1280 µg/mL. Besides, the MIC came to 4 µg/mL in series [4], 4 µg/mL in series [5], 4 µg/mL in series [6] and 32 µg/mL in series [7].
`CCCNC(=O)C[n+]1ccc(C(=O)N2CCN(c3cc4c(cc3F)c(=O)c(C(=O)O)cn4C3CC3)CC2)cc1.[Br-]` registered an HC50 at 1 h in series [3] of more than 1280 µg/mL. Moreover, the MIC in series [4] was more than 64 µg/mL; in series [5] it was 16 µg/mL; in series [6], 16 µg/mL; in series [7] it was 16 µg/mL.
